Assay results taken from patent US9650399B2, “Salicylic acid derivatives, pharmaceutically acceptable salt thereof, composition thereof and method of use thereof” (The Governing Council of the University of Toronto, priority 2012, dated 2017).

Legend:
[1] = tested on: 21 biologically important G protein-coupled receptors (GPCRs); experiment: PathHunter β-arrestin GPCR screen; type: cell-based; details: 500 nM
Source text: To more comprehensively investigate potential off-target effects, 31 was subjected to a kinome screen (101 diverse kinases, DISCOVERX™ KINOMEscan) as well as a protein and receptor screen (21 biologically important G protein-coupled receptors (GPCRs)). […] Ultra-sensitive quantitative PCR (qPCR) was used to measure levels of immobilized kinases after treatment with compound 31. The immobilized kinase levels were compared to control samples and hits were designated when the quantity of the seized kinase fell below a 35% threshold. […] The GPCRs are widely regarded as a most important family of membrane receptors, due to their master regulatory role in intracellular signal transduction. As a result, GPCRs are among the most heavily investigated drug targets in the pharmaceutical industry. […] Lack of off-target kinase activity is illustrated in the TreeSpot dendrogram (FIG. 3).

127EF = experiment: alamarBlue cell viability, BTSC 127EF; type: cell-based; details: Homo sapiens, read-out: EC50 against 127EF
Source text: . BTSC spheres were dissociated to single cells with the enzyme Accumax (Innovative Technologies), seeded at 1500 cells/96-well and treated with drug or vehicle (DMSO) one day after plating. Cytotoxicity studies were repeated independently at Sickkids Hospital using BTSC lines 25M, 67EF, 73EF, 84EF and 127EF. BTSC spheres were dissociated to single cells as above and plated in 96 well plates in triplicate at 3000 cells/96-well. In both sets of experiments drugs were used as serial dilutions within the range of 5 μM to 100 nM in the first set and 25 μM to 10 nM. Cell viability following drug treatment was assessed three days later using the ALAMARBLUE™ assay (Invitrogen) according to the manufacturer's instructions. All culture experiments were performed in triplicate with a minimum of three wells per condition. Table 4 below illustrates a screen of the library against a number of BTSCs using ALAMARBLUE™ assay.

[2] = tested on: STAT3 phosphorylation (Y705); experiment: Western blot of IL-6 stimulated pSTAT3 in pancreatic cancer cells; type: cell-based; details: 1 hr pretreatment, IL-6 50 ng/mL 15 min, Pa03C
Method: Low passage patient-derived pancreatic cancer lines (Pa03C and Panc10.05) were plated in 6-well plates (2×10^5 and 8×10^4, respectively) and allowed to attach overnight. STAT3 inhibitors were added for 1 hr prior to IL-6 stimulation (50 ng/mL, 15 min). STAT3 inhibitors were present during IL-6 stimulation. Cells were harvested and lysed for Western blotting. phospho-Specific STAT3 antibody (Y705) was used to look at STAT3 phosphorylation and total STAT3 antibody was used to normalize activation of STAT3. Antibodies were from Cell Signaling and used at a 1:1000 dilution.

[3] = tested on: patient-derived pancreatic cancer line (Pa03C); experiment: 3D culture cytotoxicity (Alamar Blue) with and without cancer-associated fibroblasts; type: cell-based; details: presence and absence of CAFs, Alamar Blue Day 11
Method: FIG. 11 illustrates the effects of STAT3 inhibitor 31 on low passage patient-derived pancreatic cancer line (Pa03C) plated in a 96-well plate coated with 1% Noble Agar in media containing 3% Matrigel, with and without cancer-associated fibroblasts. The ratio of the tumor to CAFs is 1:4. Tumor spheres begin to form around Day 3, and STAT3 inhibitor 31 added at Day 4 and 8. Cytotoxicity is assessed by fluorescence using Alamar Blue assay on Day 11.

[4] = tested on: multiple myeloma tumor cell lines; experiment: MTT cytotoxicity in multiple myeloma cell lines; type: cell-based; details: 12 of 15 multiple myeloma cell lines, read-out: ED50 (the source's name)
Method: For assessing MM cell viability, HMCL cells were seeded in 96-well plates in triplicate at a density of 20,000 cells/well and incubated with increasing concentrations of 16i and 21h or DMSO control and cell viability assessed by MTT (3-(4,5-dimethylthiazol)-2,5-diphenyl tetrazolium) colorimetric analysis. Results are reported at FIG. 12.

[5] = blood brain barrier permeability: plasma and brain concentrations by LC-MS; type: in vivo, mice; details: for concentration at 30 min: mouse, plasma, intraperitoneal
Method: Compounds 31 and 32 were given to three mice at 10 mg/kg BID via IP for five days and blood was collected at two time points (30 min. and 300 min.) for all mice. Plasma was separated from blood by centrifugation and stored at −20° C. until analysis. Brain was also collected from one mouse at each dose. Concentrations of compounds were determined using LC-MS.

[6] = tested on: ErbB2 mammary breast tumour cell lines (NIC); experiment: CyQuant proliferation assay in ErbB2 mammary tumour cell lines; type: cell-based
Method: Compounds were assessed for inhibition of cell proliferation in ErbB2 mammary breast tumour cell lines (NIC) containing the activated form of ErbB2 using a CyQuant Assay. […] Three individual Mouse Mammary Tumour Virus ErbB2 mammary tumour cell lines (NIC) were resuspended in 10% FBS plus single quots DMEM media to a final concentration of 40,000 cells per 1 mL. Cells were plated at a concentration of 4,000 cells in 100 μL of media per well on 96 well NUNC plates and incubated for 24 h hours at 37° C. plus 5% CO2. […] Each condition was repeated in quadruplicate. At predetermined time points; at treatment, 24 h, 48 h and 72 h post treatment, the media was removed from the cells and the plates were stored at −80° C. wrapped in tin foil. When needed, all the plates were thawed to room temperature. Invitrogen's CyQuant Cell Proliferation Assay kit was used to measure DNA content. Following their directions, the cell lysis buffer was diluted 1:20 with water and then the CyQuant GR solution 1:400 in the lysis buffer. […] The plates were then incubated for 2-5 minutes protected from light, then read on a fluorescence microplate reader with filters for 480 nm excitation and 520 nm emission maxima. Quadruplicates were averaged and the error bars represent the S.E.M. In some cases the absorbance was normalized to the DMSO control.

BT73 brain tumours = experiment: BT73 orthotopic xenograft, in vivo on-target assessment; details: 10 mg/kg i.p., 10 doses
Method: For in vivo on-target Assessment, BTIC spheres from BT73 were enzymatically dissociated (Accumax, eBioscience) to single cell suspensions. Cells were washed in PBS and re-suspended at 10^5 cells per 3 μL media for orthotopic xenografts. Six non-obese diabetic severe combined immunodeficiency (NOD SCID) mice were each xenografted with 10^5 BT73 cells stereotactically implanted into the right striatum. Seven days following implants, mice were randomized into vehicle and drug cohorts and injected i.p., four days on, three days off, for a total of 10 doses. […] Vehicle-treated mice received an equal volume of 50% PEG 300 in water. Mice were euthanized with a lethal dose of sodium pentobarbitol, followed by transcardiac perfusion of 4% paraformaldehyde (PFA) two hours following injection of the last drug dose. […] Hematoxylin and eosin (H&E) staining was performed according to standard protocols. Immunohistochemistry was performed by incubating with primary antibodies overnight at 4° C. followed by the Vectastain Elite mouse IgG or rabbit IgG kits (Vector Laboratories) and detection with DAB substrate and hematoxylin counterstaining (Sigma-Aldrich) according to the manufacturer's instructions. Primary antibodies included—STAT3 S727 (Cell Signaling Technology) and Ki67 (Novocastra). Secondary antibodies included biotin conjugated goat anti-rabbit (Jackson Immunoresearch).) Xenograft tumor cells undergoing apoptosis were also detected with the ApopTag Plus Peroxidase In Situ Apoptosis Detection Kit (Chemicon International, Inc., Temecula, Calif.) according to the manufacturer's instructions (TUNEL assay).

**Q.** Which “off-target activity against GPCRs” value [1] does the source give for CN(CC(=O)N(Cc1ccc(C2CCCCC2)cc1)c1ccc(C(=O)NO)cc1)S(=O)(=O)c1c(F)c(F)c(F)c(F)c1F [Compound 32, 4-(N-(4-cyclohexylbenzyl)-2-(2,3,4,5,6-pentafluoro-N-methylphenylsulfonamido)acetamido)-N-hydroxybenzamide] here?
**A.** no off-target activity

**Q.** Which EC50 (127EF) does the source give for CN(CC(=O)N(Cc1ccc(C2CCCCC2)cc1)c1ccc(C(=O)O)cc1)S(=O)(=O)c1c(F)c(F)c(F)c(F)c1F [Compound 31, 4-(N-(4-cyclohexylbenzyl)-2-(2,3,4,5,6-pentafluoro-N-methylphenylsulfonamido)acetamido)benzoic acid] here?
**A.** 0.066 ± 0.0339 µM

**Q.** And the “de novo phosphorylation of STAT3” value [2]?
**A.** potently inhibits de novo phosphorylation of STAT3 protein

**Q.** What about the “killing of tumor cells grown in 3D cultures” value [3] of the same compound?
**A.** effectively kills tumor cells

**Q.** What about the EC50 [4] of the same compound?
**A.** 2 to 6 µM

**Q.** And the “change of plasma concentration between 30 min. and 300 min” value ([5]; 10 mg/kg BID IP)?
**A.** did not change significantly

**Q.** What about the “concentration in the brain” value ([5]; 10 mg/kg dosing (FIG. 18)) of the same compound?
**A.** up to 300 nM

**Q.** What about the “concentration in the brain” value ([5]; 10 mg/kg dosing, IP BID) of the same compound?
**A.** about 0.3 μM

**Q.** And the “compound in plasma after 5 hr” value ([5]; both doses (10 and 25 mg/kg))?
**A.** no compound was detected

**Q.** And the “concentration in the brain” value ([5]; dosing 10 mg/kg and 25 mg/kg, LCMS (FIG. 17))?
**A.** up to 0.7 μM

**Q.** And the concentration at 30 min ([5]; 10 mg/kg)?
**A.** 240 nM

**Q.** What about the concentration at 30 min ([5]; 25 mg/kg) of the same compound?
**A.** 580 nM

**Q.** What about the “cell proliferation in 2071 NIC cells” value ([6]; 5 μM, CyQuant) of the same compound?
**A.** completely inhibiting cell proliferation

**Q.** What about the “potency in comparison with BP1-102” value ([6]; NIC cell lines 2071, 8518 and 9822) of the same compound?
**A.** more potent

**Q.** What about the “activated phospho-STAT immunohistochemical staining” value (BT73 brain tumours) of the same compound?
**A.** reduced immunohistochemical staining

**Q.** And the “apoptosis, TUNEL staining” value (BT73 brain tumours)?
**A.** Increased TUNEL staining

**Q.** And the “expression of proliferation marker Ki67” value (BT73 brain tumours)?
**A.** Decreased expression of proliferation marker Ki67

**Q.** And the “tumour cells, hematoxylin/eosin staining” value (BT73 brain tumours)?
**A.** significant decrease in tumour cells
